# Results: US20250145594A1, “MODULATORS OF THE INTEGRATED STRESS PATHWAY” (Calico Life Sciences LLC, priority 2020, published 2025)
# System: ATF4 luciferase reporter in HEK293T cells
# Assay: ATF4-Luc assay (in vitro model of VWMD)
# Type: cell-based, human
# Conditions: Homo sapiens, HEK-293T, 7 h, HEK293T cells carrying the ATF4 luciferase reporter, 1 μg/mL tunicamycin, One Glo luminescence
# How it was run: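 Tunicamycin (1 μg/mL) stress with co-added compound for 7 hours in HEK293T cells stably carrying an ATF4 5′-UTR–luciferase reporter. EC50 values come from the luminescent signal (One Glo).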
row,Structure (SMILES),EC50
1,"O=C(NC12CC(n3cc(N4CC(OC(F)(F)F)C4)cn3)(C1)C2)[C@H]1C[C@@H](O)c2cc(Cl)ccc2O1 [Compound 352, (2R,4R)-6-chloro-4-hydroxy-N-(3-{4-[3-(trifluoromethoxy)azetidin-1-yl]-1H-pyrazol-1-yl}bicyclo[1.1.1]pentan-1-yl)-3,4-dihydro-2H-1-benzopyran-2-carboxamide]",10 to 50 nM
2,"O=C(COc1ccc(Cl)c(F)c1)NC12CC(C(=O)NC34CC(C(F)(F)F)(C3)C4)(C1)C2 [Compound 353, 3-[2-(4-chloro-3-fluorophenoxy)acetamido]-N-[3-(trifluoromethyl)bicyclo[1.1.1]pentan-1-yl]bicyclo[1.1.1]pentane-1-carboxamide]",50 to 250 nM
3,"O=C(NC12CC(n3cc(-c4ccc(C(F)(F)F)cn4)cn3)(C1)C2)[C@H]1C[C@@H](O)c2cc(C(F)(F)F)ccc2O1 [Compound 354, (2R,4R)-4-hydroxy-6-(trifluoromethyl)-N-(3-{4-[5-(trifluoromethyl)pyridin-2-yl]-1H-pyrazol-1-yl}bicyclo[1.1.1]pentan-1-yl)-3,4-dihydro-2H-1-benzopyran-2-carboxamide]",< 10 nM
4,"O=C(NC12CC(n3cc(N4CC[C@H](OC(F)(F)F)C4)cn3)(C1)C2)[C@H]1C[C@@H](O)c2cc(Cl)ccc2O1 [Compound 355, (2R,4R)-6-chloro-4-hydroxy-N-(3-{4-[(3S)-3-(trifluoromethoxy)pyrrolidin-1-yl]-1H-pyrazol-1-yl}bicyclo[1.1.1]pentan-1-yl)-3,4-dihydro-2H-1-benzopyran-2-carboxamide]",10 to 50 nM
5,"O=C(NC12CC(n3cc(N4CC[C@@H](OC(F)(F)F)C4)cn3)(C1)C2)[C@H]1C[C@@H](O)c2cc(Cl)ccc2O1 [Compound 356, (2R,4R)-6-chloro-4-hydroxy-N-(3-{4-[(3R)-3-(trifluoromethoxy)pyrrolidin-1-yl]-1H-pyrazol-1-yl}bicyclo[1.1.1]pentan-1-yl)-3,4-dihydro-2H-1-benzopyran-2-carboxamide]",< 10 nM
6,"O=C(NC12CC(n3cc(-c4ccc(OC(F)(F)F)cc4)nn3)(C1)C2)[C@H]1C[C@@H](O)c2cc(Cl)ccc2O1 [Compound 357, (2R,4R)-6-chloro-4-hydroxy-N-(3-{4-[4-(trifluoromethoxy)phenyl]-1H-1,2,3-triazol-1-yl}bicyclo[1.1.1]pentan-1-yl)-3,4-dihydro-2H-1-benzopyran-2-carboxamide]",< 10 nM
7,"O=C(NC12CC(n3cc(-c4ccc(Cl)c(F)c4)nn3)(C1)C2)[C@H]1C[C@@H](O)c2cc(Cl)ccc2O1 [Compound 358, (2R,4R)-6-chloro-N-{3-[4-(4-chloro-3-fluorophenyl)-1H-1,2,3-triazol-1-yl]bicyclo[1.1.1]pentan-1-yl}-4-hydroxy-3,4-dihydro-2H-1-benzopyran-2-carboxamide]",< 10 nM
8,"CCO[C@H]1CCN(C(=O)c2cnn(C34CC(NC(=O)[C@H]5C[C@@H](O)c6cc(Cl)ccc6O5)(C3)C4)c2)C1 [Compound 359, (2R,4R)-6-chloro-N-(3-{4-[(3S)-3-ethoxypyrrolidine-1-carbonyl]-1H-pyrazol-1-yl}bicyclo[1.1.1]pentan-1-yl)-4-hydroxy-3,4-dihydro-2H-1-benzopyran-2-carboxamide]",10 to 50 nM
9,"O=C(NC12CC(c3cn(-c4ccc(OC(F)(F)F)cc4)nn3)(C1)C2)[C@H]1C[C@@H](O)c2cc(Cl)ccc2O1 [Compound 360, (2R,4R)-6-chloro-4-hydroxy-N-(3-{1-[4-(trifluoromethoxy)phenyl]-1H-1,2,3-triazol-4-yl}bicyclo[1.1.1]pentan-1-yl)-3,4-dihydro-2H-1-benzopyran-2-carboxamide]",< 10 nM
10,"O=C(NC12CC(n3cc(-c4ccc(OC(F)(F)F)cn4)cn3)(C1)C2)[C@H]1C[C@@H](O)c2cc(Cl)c(F)cc2O1 [Compound 361, (2R,4R)-6-chloro-7-fluoro-4-hydroxy-N-(3-{4-[5-(trifluoromethoxy)pyridin-2-yl]-1H-pyrazol-1-yl}bicyclo[1.1.1]pentan-1-yl)-3,4-dihydro-2H-1-benzopyran-2-carboxamide]",< 10 nM
11,"O=C(COc1ccc(Cl)c(F)c1)NC12CC(n3cc(C(=O)N[C@H]4C[C@@H](OC(F)(F)F)C4)cn3)(C1)C2 [Compound 362, 1-{3-[2-(4-chloro-3-fluorophenoxy)acetamido]bicyclo[1.1.1]pentan-1-yl}-N-[cis-3-(trifluoromethoxy)cyclobutyl]-1H-pyrazole-4-carboxamide]",50 to 250 nM
12,"O=C(NC12CC(n3cc(C(=O)N4CC(COC(F)(F)F)C4)cn3)(C1)C2)[C@H]1C[C@@H](O)c2cc(Cl)c(F)cc2O1 [Compound 363, (2R,4R)-6-chloro-7-fluoro-4-hydroxy-N-[3-(4-{3-[(trifluoromethoxy)methyl]azetidine-1-carbonyl}-1H-pyrazol-1-yl)bicyclo[1.1.1]pentan-1-yl]-3,4-dihydro-2H-1-benzopyran-2-carboxamide]",< 10 nM
13,"O=C(NC12CC(n3cc(-c4ccc(C(F)(F)F)cn4)cn3)(C1)C2)[C@H]1C[C@@H](O)c2cc(Cl)ccc2O1 [Compound 364, (2R,4R)-6-chloro-4-hydroxy-N-(3-{4-[5-(trifluoromethyl)pyridin-2-yl]-1H-pyrazol-1-yl}bicyclo[1.1.1]pentan-1-yl)-3,4-dihydro-2H-1-benzopyran-2-carboxamide]",< 10 nM
14,"O=C(NC12CC(n3cc(-c4cnc(C5CC5)nc4)cn3)(C1)C2)[C@H]1C[C@@H](O)c2cc(Cl)ccc2O1 [Compound 365, (2R,4R)-6-chloro-N-{3-[4-(2-cyclopropylpyrimidin-5-yl)-1H-pyrazol-1-yl]bicyclo[1.1.1]pentan-1-yl}-4-hydroxy-3,4-dihydro-2H-1-benzopyran-2-carboxamide]",< 10 nM
15,"O=C(NC12CC(n3cc(C(=O)N4CCC(OC(F)(F)F)CC4)cn3)(C1)C2)[C@H]1C[C@@H](O)c2cc(Cl)ccc2O1 [Compound 366, (2R,4R)-6-chloro-4-hydroxy-N-(3-{4-[4-(trifluoromethoxy)piperidine-1-carbonyl]-1H-pyrazol-1-yl}bicyclo[1.1.1]pentan-1-yl)-3,4-dihydro-2H-1-benzopyran-2-carboxamide]",50 to 250 nM
16,"O=C(NC12CC(n3cc(-c4ccc(OC(F)(F)F)cn4)cn3)(C1)C2)[C@H]1C[C@@H](O)c2ccccc2O1 [Compound 367, (2R,4R)-4-hydroxy-N-(3-{4-[5-(trifluoromethoxy)pyridin-2-yl]-1H-pyrazol-1-yl}bicyclo[1.1.1]pentan-1-yl)-3,4-dihydro-2H-1-benzopyran-2-carboxamide]",< 10 nM
17,"O=C(NC12CC(n3cnc(C(=O)N4CC(COC(F)(F)F)C4)c3)(C1)C2)[C@H]1C[C@@H](O)c2cc(Cl)ccc2O1 [Compound 368, (2R,4R)-6-chloro-4-hydroxy-N-[3-(4-{3-[(trifluoromethoxy)methyl]azetidine-1-carbonyl}-1H-imidazol-1-yl)bicyclo[1.1.1]pentan-1-yl]-3,4-dihydro-2H-1-benzopyran-2-carboxamide]",10 to 50 nM
18,"O=C(NC12CC(n3cc(-c4ccc(OC(F)(F)F)cn4)cn3)(C1)C2)[C@H]1C[C@@H](O)c2cc(F)c(F)cc2O1 [Compound 369, (2R,4R)-6,7-difluoro-4-hydroxy-N-(3-{4-[5-(trifluoromethoxy)pyridin-2-yl]-1H-pyrazol-1-yl}bicyclo[1.1.1]pentan-1-yl)-3,4-dihydro-2H-1-benzopyran-2-carboxamide]",< 10 nM
